Experimental data from patent US20160002315A1, “APOLIPOPROTEIN MIMETICS AND USES THEREOF” (UAB RESEARCH FOUNDATION, priority 2013, published 2016).

Assays:
VLDL = conditions: peptide interacting with VLDL; cited from earlier work
MEF 1 cells = MEF 1 cells with induced LDL receptors; cited from earlier work
cells = conditions: peptide-associated VLDL, absence of apoE; cited from earlier work
Apo E −/− mice [1] = assay: Study Two: plasma and liver lipids in Apo E -/- mice; format: in vivo; conditions: four weeks after cessation of treatment
Description: (§1) The mice were fed a lard diet for seven weeks and then were switched to a chow diet for four weeks. The mice were treated two times a week for four weeks and then treatment was withdrawn for four weeks. Termination 1 represents the time point immediately following termination of the Apo E mimetic treatment. Termination 2 represents the time point immediately following the four weeks of treatment withdrawal. Lipids were analyzed in the plasma (cholesterol, triglycerides) and in the liver (cholesterol esters, unesterified cholesterol, triglycerides).

Apo E null mice [2] = assay: Study One: plasma markers of oxidative stress (ROS, PON activity) in Apo E null mice; format: in vivo
Description: (§2) The mice were fed a Western diet for 6 weeks to elevate cholesterol. The animals were then switched to a chow diet for two weeks after which they were treated with peptide or saline for 4 weeks. Treatment was then withdrawn for 4 weeks while the animals remained on a chow diet. After the 4 week post treatment phase, the mice were euthanized and tissue dissection and sample collection was performed.
(§3) Blood was drawn after 4 weeks of treatment at week 26 and analyzed for cholesterol. […] However, Apo E mimetic treatment did improve plasma marker of oxidative stress, such as ROS and PON activity. […] Because ROS have been implicated in the pathogenesis of atherosclerosis, the decrease in ROS by treatment with an Apo E mimetic is beneficial.
The PON gene family has anti-atherosclerotic effects, such as preventing oxidation of LDLs. Thus, the increase in PON activity in hE18A treated mice is beneficial in the atherosclerosis animal model.
(§4) The mice were euthanized at week 30, which is four weeks post treatment with Apo E mimetic.

Apo E −/− mice [3] = assay: Study Two: plaques in the aorta of Apo E -/- mice; format: in vivo; conditions: 5 mg/kg
Description: as §1

Apo E null mice [4] = assay: Study One: plasma cholesterol and triglycerides in Apo E null mice; format: in vivo
Description: as §2, §3, §4

Apo E null mice [5] = assay: Study One: atherosclerotic lesions (en face aorta, aortic sinus, macrophage coverage) in Apo E null mice; format: in vivo
Description: as §2, §4

[6] = four weeks after the end of treatment
[7] = 4 weeks post treatment (study termination)

## Ac-D-W-L-K-A-F-Y-D-K-V-A-E-K-L-K-E-A-F-NH2 (Ac-DWLKAFYDKVAEKLKEAF-NH2) [Ac-18A-NH2, control peptide, reference compound]
VLDL
  displacement of apo E from VLDL: displacement of apo E from VLDL

## LRRLRRRLLR-18A [Ac-hE(R)-18A-NH2]
MEF 1 cells
  enhancement of LDL internalization: seven

## LRKMRKRLMR-18A [Ac-mE-18A-NH2]
MEF 1 cells
  enhancement of LDL internalization: three

## Ac-LRKLRKRLLRDWLKAFYDKVAEKLKEAF-NH2 [Ac-hE18A-NH2, end protected analog of hE-18A]
cells
  enhancement of degradation of VLDL compared to VLDL alone: three
  enhancement of uptake of VLDL compared to VLDL alone: six
Apo E −/− mice [1]
  cholesterol levels: about 650 mg/dl
Apo E null mice [2]; Apo E null mice, HDL fractions 29-32
  PON-1 levels in HDL fractions: dramatic increase
VLDL
  displacement of apo E from VLDL: displacement of apo E from VLDL
Apo E −/− mice [3]
  decrease of atherosclerotic lesions in the thoracic aorta: about 50%
Apo E −/− mice [3]; at the end of treatment
  reduction of lesions in the aortic arch: about 35%

## LRKLRKRLLRDWLKAFYDKVAEKLKEAF (ApoE mimetic) [hE18A]
Apo E null mice [2]; 4 weeks post treatment, over saline and mR18L
  PON-1 activity: still increased
Apo E null mice [2]; after 4 weeks of treatment, compared to saline
  reactive oxygen species (ROS): significant decrease
Apo E null mice [2]; after 4 weeks of treatment, compared to saline and mR18L
  paraoxonase (PON) activity: significant increase
Apo E null mice [2]; [6]
  ROS levels: not significantly different
Apo E null mice [4]; end of 4 weeks of treatment, compared to mR18L and saline
  plasma cholesterol levels: better in reducing plasma cholesterol levels
Apo E null mice [4]; [6]
  cholesterol levels: not significantly different
Apo E null mice [5]; [7]
  atherosclerotic lesion area in the aortic sinus: significantly decreased
  macrophage coverage of the aortic sinus: non-significant trend towards a decrease
Apo E null mice [5]; 4 weeks post treatment, compared to saline or mR18L
  atherosclerotic lesion area (en face aorta): significantly reduced
